Source: patent US12533343B2, “Method for preparing (−)-cibenzoline succinate” (CELLTRION, INC., priority 2018, dated 2026)

Experiments:
Assay type in all cases: physicochemical
Particle size analysis = assay: Particle size analysis
From the text: The powder sample was dispersed with a dispersion pressure of 2 bar.
The accompanying Table 9 (ref. 2019 USP 42 NF 37 Volume 4 physical tests <811> powder fineness) indicates particle size distribution associated with corresponding values.

[1] = Long-term storage stability test; conditions: for Assay by potentiometry (on dried basis) / Chiral purity by HPLC S-Isomer Content / Identification by IR / Loss on drying at 105° C. for 3 hours / Related substance by HPLC Single maximum unknown impurity / Related substance by HPLC Total impurity: 25±2° C., RH 60±5%
Method: And related substances was measured by HPLC under below conditions.
(§1) <Packing details>—Primary packing: (−)-Cibenzoline succinic acid salt obtained by Example 4 shall be packed in transparent LDPE bag, twist and tie with Strip seal. • Secondary packing: The above bag shall be kept in Black color LDPE bag, twist and tie with Strip seal. • Tertiary packing: The above bag shall be kept Triple laminated aluminum bag with heat seal. Keep this bag in HDPE drum and close with lid.

[2] = Accelerated stability test; conditions: for Assay by potentiometry (on dried basis) / Chiral purity by HPLC S-Isomer Content / Identification by IR / Loss on drying at 105° C. for 3 hours / Related substance by HPLC Single maximum unknown impurity / Related substance by HPLC Total impurity: 40±2° C., RH 75±5%
From the text: as §1

Hygroscopicity = conditions: 25±1° C., 24 hours, 80±2% RH
From the text: The hygroscopicity was to describe the water vapor uptake behavior of solid by mass changes.
The results of the hygroscopicity study shall be interpreted based on the criteria in Table 11 (ref. EUROPEAN PHARMACOPOEIA 9.0 volume 1 5.11. characters section in monographs).

[3] = powder dispersed at 2 bar, listed as (−)-Cibenzoline succinic acid salt

O=C(O)CCC(=O)O.c1ccc(C2(c3ccccc3)C[C@@H]2C2=NCCN2)cc1 [Example 4, (−)-Cibenzoline succinic acid salt]
Classification (particle size) (Particle size analysis; USP <811> powder fineness): Very fine
d10 (Particle size analysis; powder dispersed at 2 bar): 15.2 μm
d50 (Particle size analysis; powder dispersed at 2 bar): 104 μm
d90 (Particle size analysis; powder dispersed at 2 bar): 265 μm
d50 (Particle size analysis; [3]): 104.0 μm
d90 (Particle size analysis; [3]): 265.0 μm
Assay by potentiometry (on dried basis) ([1]; 1-month): 99.9 % w/w
Chiral purity by HPLC S-Isomer Content ([1]; 1-month): 100.0 % Area normalization
Identification by IR ([1]; 1-month): Complies
Loss on drying at 105° C. for 3 hours ([1]; 1-month): 0.04 % w/w
Related substance by HPLC Single maximum unknown impurity ([1]; 1-month): 0.01 % w/w
Related substance by HPLC Total impurity ([1]; 1-month): 0.01 % w/w
Assay by potentiometry (on dried basis) ([1]; 2-month): 100.1 % w/w
Chiral purity by HPLC S-Isomer Content ([1]; 2-month): 100.0 % Area normalization
Identification by IR ([1]; 2-month): Complies
Loss on drying at 105° C. for 3 hours ([1]; 2-month): 0.07 % w/w
Related substance by HPLC Single maximum unknown impurity ([1]; 2-month): 0.01 % w/w
Related substance by HPLC Total impurity ([1]; 2-month): 0.01 % w/w
Assay by potentiometry (on dried basis) ([1]; 3-month): 100.2 % w/w
Chiral purity by HPLC S-Isomer Content ([1]; 3-month): 100.0 % Area normalization
Identification by IR ([1]; 3-month): Complies
Loss on drying at 105° C. for 3 hours ([1]; 3-month): 0.14 % w/w
Assay by potentiometry (on dried basis) ([1]; 6-month): 100.2 % w/w
Chiral purity by HPLC S-Isomer Content ([1]; 6-month): 100.0 % Area normalization
Identification by IR ([1]; 6-month): Complies
Loss on drying at 105° C. for 3 hours ([1]; 6-month): 0.18 % w/w
Assay by potentiometry (on dried basis) ([1]; Initial): 100.1 % w/w
Chiral purity by HPLC S-Isomer Content ([1]; Initial): 100.0 % Area normalization
Identification by IR ([1]; Initial): Complies
Loss on drying at 105° C. for 3 hours ([1]; Initial): 0.11 % w/w
Related substance by HPLC Single maximum unknown impurity ([1]; Initial): 0.01 % w/w
Related substance by HPLC Total impurity ([1]; Initial): 0.01 % w/w
change of (S)-form to (R)-form ([1]; long-term storage conditions): not changed to (R)-form
stability conclusion ([1]; long-term storage conditions): excellent stability
white crystalline powder form over storage ([1]; six months, long-term storage conditions): uniformly maintained
Assay by potentiometry (on dried basis) ([2]; 1-month): 100.1 % w/w
Chiral purity by HPLC S-Isomer Content ([2]; 1-month): 100.0 % Area normalization
Identification by IR ([2]; 1-month): Complies
Loss on drying at 105° C. for 3 hours ([2]; 1-month): 0.15 % w/w
Related substance by HPLC Single maximum unknown impurity ([2]; 1-month): 0.01 % w/w
Related substance by HPLC Total impurity ([2]; 1-month): 0.01 % w/w
Assay by potentiometry (on dried basis) ([2]; 2-month): 100.3 % w/w
Chiral purity by HPLC S-Isomer Content ([2]; 2-month): 100.0 % Area normalization
Identification by IR ([2]; 2-month): Complies
Loss on drying at 105° C. for 3 hours ([2]; 2-month): 0.12 % w/w
Assay by potentiometry (on dried basis) ([2]; 3-month): 100.1 % w/w
Chiral purity by HPLC S-Isomer Content ([2]; 3-month): 100.0 % Area normalization
Identification by IR ([2]; 3-month): Complies
Loss on drying at 105° C. for 3 hours ([2]; 3-month): 0.09 % w/w
Assay by potentiometry (on dried basis) ([2]; 6-month): 99.6 % w/w
Chiral purity by HPLC S-Isomer Content ([2]; 6-month): 100.0 % Area normalization
Identification by IR ([2]; 6-month): Complies
Loss on drying at 105° C. for 3 hours ([2]; 6-month): 0.10 % w/w
Assay by potentiometry (on dried basis) ([2]; Initial): 100.1 % w/w
Chiral purity by HPLC S-Isomer Content ([2]; Initial): 100.0 % Area normalization
Identification by IR ([2]; Initial): Complies
Loss on drying at 105° C. for 3 hours ([2]; Initial): 0.11 % w/w
Related substance by HPLC Single maximum unknown impurity ([2]; Initial): 0.01 % w/w
Related substance by HPLC Total impurity ([2]; Initial): 0.01 % w/w
stability conclusion ([2]; accelerated conditions): excellent stability
change of (S)-form to (R)-form ([2]; accelerated stability test section): not changed to (R)-form
white crystalline powder form over storage ([2]; six months, accelerated conditions): uniformly maintained
Mass change (Hygroscopicity): 0.01%
Hygroscopicity evaluation (Hygroscopicity; Ph. Eur. criteria): Non hygroscopic
